Reference: patent US10676433B2, “Indole derivatives and their use in neurodegenerative diseases” (Merck Patent GmbH, priority 2014, dated 2020)
pIC50: −log10 of the molar value.

Target: human P2X7 receptor (Homo sapiens (Human), UniProt Q99572)
Assay: Pore permeation assay (YO PRO dye uptake)
Format: cell-based
Conditions: HEK293 transfected with human P2X7 receptor, BzATP 10 uM, read-out: hP2X7 IC50
Protocol: Agonist-induced pore formation was determined by measuring cellular uptake of YO PRO fluorescence dye in HEK293 transfected with human P2X7 receptor. A HEK293 cell over expressing human P2X7 was harvested using HQTase reagent to detach the cells from T75 cm flask. The harvested cells are centrifuged @ 1200 rpm for 5 min at room temperature. The viability of cells was determined by Trypan blue dye and the cells are plated @ 10,000 cell/well in 50 ul volume in a 384W BD Poly lysine coated plate and incubated overnight at 37 C. […] The plate was centrifuged at 1000 rpm for 5 seconds and incubated at room temperature for 30 minutes. The uptake of YO PRO dye into the cells was measured using Envision Fluorescence plate reader instrument (Perkin Elmer).

human P2X7 receptor, sequence (Q99572 whole entry): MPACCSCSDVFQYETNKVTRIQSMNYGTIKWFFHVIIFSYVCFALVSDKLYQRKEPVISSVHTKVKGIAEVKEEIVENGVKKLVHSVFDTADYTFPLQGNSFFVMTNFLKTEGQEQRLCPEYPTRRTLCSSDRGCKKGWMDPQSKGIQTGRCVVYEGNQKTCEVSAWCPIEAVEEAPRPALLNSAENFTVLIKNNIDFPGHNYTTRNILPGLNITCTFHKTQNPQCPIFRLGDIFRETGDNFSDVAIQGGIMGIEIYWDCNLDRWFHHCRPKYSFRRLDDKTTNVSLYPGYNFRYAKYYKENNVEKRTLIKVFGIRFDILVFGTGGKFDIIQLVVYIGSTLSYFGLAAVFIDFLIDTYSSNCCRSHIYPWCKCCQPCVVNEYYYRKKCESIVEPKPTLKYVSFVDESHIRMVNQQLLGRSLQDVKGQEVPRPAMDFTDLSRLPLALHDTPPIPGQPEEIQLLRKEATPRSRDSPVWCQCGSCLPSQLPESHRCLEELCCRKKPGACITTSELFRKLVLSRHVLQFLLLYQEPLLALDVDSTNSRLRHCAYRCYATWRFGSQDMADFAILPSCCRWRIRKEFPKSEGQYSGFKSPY

| Compound | pIC50 |
| --- | --- |
| 4-Chloro-1-oxetan-3-yl-1H-indole-3-carboxylic acid (2,2-difluoro-ethyl)-amide [Compound 76] | < 6.00 |
| CC(O)(CNC(=O)c1cn(C2CCOC2)c2cccc(Cl)c12)C1CCCC1 (centres unmarked) [Compound 102, 4-Chloro-1-(tetrahydro-furan-3-yl)-1H-indole-3-carboxylic acid (2-cyclopentyl-2-hydroxy-propyl)-amide] | < 6.00 |
